Data reported in patent US20250143304A1, “INSECT, ACARINA AND NEMATODE PEST CONTROL” (SYNGENTA CROP PROTECTION AG, priority 2022, published 2025).
Read-outs that look alike come from different tables or passages of the source.

Tested on: Spodoptera littoralis (Egyptian cotton leaf worm)
Experiment: Spodoptera littoralis (Egyptian cotton leaf worm) feeding/contact activity assay, mortality on cotton leaf discs; synergy by COLBY formula
Assay type: in vivo
Source text: A synergistic effect exists whenever the action of an active ingredient combination is greater than the sum of the actions of the individual components. The action to be expected E for a given active ingredient combination obeys the so-called COLBY formula and can be calculated as follows (COLBY, S.R. “Calculating synergistic and antagonistic responses of herbicide combination”. Weeds, Vol. 15, pages 20-22 1967): • ppm=milligrams of active ingredient (a.i.) per liter • X=% action by first active ingredient using p ppm of the active ingredient • Y=% action by second active ingredient using q ppm of the active ingredient.
According to Colby, the expected (additive) action of active ingredients A+B using p+q ppm of active
If the action actually observed O is greater than the expected action E, then the action of the combination is super-additive, i.e. there is a synergistic effect. In mathematical terms, synergism corresponds to a positive value for the difference of (O-E). In the case of purely complementary addition of activities (expected activity), said difference (O-E) is zero. A negative value of said difference (O-E) signals a loss of activity compared to the expected activity.
The synergistic biological activity of combinations of component (A) and component (B) as disclosed herein was assessed using a Spodoptera littoralis (Egyptian cotton leaf worm) feeding/contact activity assay. Cotton leaf discs were placed onto agar in 24-well microtiter plates and sprayed with aqueous test solutions prepared from 10′000 ppm DMSO stock solutions. After drying the leaf discs were infested with L1 larvae. The samples were assessed for mortality 3 days after infestation.

[1] = Spodoptera littoralis, foliar, 72 h, read-out: Mortality (%) Observed (%)
[2] = single component alone at 7.8125 mg/L, 3 days after infestation
[3] = single component alone at 15.625 mg/L, 3 days after infestation
[4] = single component alone at 1.95312 mg/L, 3 days after infestation
[5] = single component alone at 3.90625 mg/L, 3 days after infestation
[6] = single component alone at 31.25 mg/L, 3 days after infestation
[7] = single component alone at 62.5 mg/L, 3 days after infestation
[8] = single component alone at 125 mg/L, 3 days after infestation
[9] = single component alone at 250 mg/L, 3 days after infestation

CCC(=O)NCc1ccc(C2=NO[C@@](c3cc(Cl)c(F)c(Cl)c3)(C(F)(F)F)C2)c2c1OCC2 [A-1, N-[[4-[(5S)-5-(3,5-dichloro-4-fluorophenyl)-5-(trifluoromethyl)-4H-isoxazol-3-yl]-2,3-dihydrobenzofuran-7-yl]methyl]propanamide]
mortality at 0.0078125 µg/mL [1]: 0%
mortality at 0.015625 µg/mL [1]: 0%
mortality at 0.03125 µg/mL [1]: 0%
mortality at 0.0625 µg/mL [1]: 80%
mortality at 0.125 µg/mL [1]: 100%

CC1(NC(=O)c2cccc3nn(-c4cccnc4)cc23)CC1 [B-4, indazapyroxamet]
Mortality (%) Observed (%) [2]: 0%
Mortality (%) Observed (%) [3]: 0%

C[n+]1c([O-])c(-c2ccccc2)c(=O)n2c1SC[C@@H]2c1cnc(Cl)s1 [B-5, fenmezoditiaz]
Mortality (%) Observed (%) (single component alone at 0.488281 mg/L, 3 days after infestation): 0%
Mortality (%) Observed (%) (single component alone at 0.976562 mg/L, 3 days after infestation): 0%
Mortality (%) Observed (%) [4]: 0%
Mortality (%) Observed (%) [5]: 0%
Mortality (%) Observed (%) [2]: 0%

CCS(=O)(=O)c1cccnc1-c1cnc(OCC(F)(F)C(F)(F)F)cn1 [B-17, 2-(3-ethylsulfonyl-2-pyridyl)-5-(2,2,3,3,3-pentafluoropropoxy)pyrazine]
mortality at 0.0390625 µg/mL (Spodoptera littoralis, foliar, 72 h, single component alone at 0.0390625 mg/L, 3 days after infestation, read-out: Mortality (%) Observed (%)): 0%
mortality at 0.078125 µg/mL (Spodoptera littoralis, foliar, 72 h, single component alone at 0.078125 mg/L, 3 days after infestation, read-out: Mortality (%) Observed (%)): 0%
mortality at 0.15625 µg/mL (Spodoptera littoralis, foliar, 72 h, single component alone at 0.15625 mg/L, 3 days after infestation, read-out: Mortality (%) Observed (%)): 0%
mortality at 0.3125 µg/mL (Spodoptera littoralis, foliar, 72 h, single component alone at 0.3125 mg/L, 3 days after infestation, read-out: Mortality (%) Observed (%)): 0%
mortality at 0.625 µg/mL (Spodoptera littoralis, foliar, 72 h, single component alone at 0.625 mg/L, 3 days after infestation, read-out: Mortality (%) Observed (%)): 0%
mortality at 1.25 µg/mL (Spodoptera littoralis, foliar, 72 h, single component alone at 1.25 mg/L, 3 days after infestation, read-out: Mortality (%) Observed (%)): 0%
mortality at 2.5 µg/mL (Spodoptera littoralis, foliar, 72 h, single component alone at 2.5 mg/L, 3 days after infestation, read-out: Mortality (%) Observed (%)): 20%

CN/C(=N\[N+](=O)[O-])NCc1cnc(Cl)s1 [B-38, clothianidin]
mortality at 0.15625 µg/mL [1]: 0%
mortality at 0.3125 µg/mL [1]: 0%
mortality at 0.625 µg/mL [1]: 0%
mortality at 1.25 µg/mL [1]: 0%
mortality at 2.5 µg/mL [1]: 0%

CNC(=O)c1cc(Cl)cc(C)c1NC(=O)c1cc(Br)nn1-c1ncccc1Cl [B-43, chlorantraniliprole]
mortality at 0.00390625 µg/mL [1]: 0%
mortality at 0.0078125 µg/mL [1]: 0%
mortality at 0.015625 µg/mL [1]: 0%
mortality at 0.03125 µg/mL [1]: 0%
mortality at 0.0625 µg/mL [1]: 0%
mortality at 0.125 µg/mL [1]: 0%

CC1(C)C(C=C(Cl)Cl)C1C(=O)OC(C#N)c1cccc(Oc2ccccc2)c1 (stereo not drawn) [B-46, alpha-cypermethrin]
mortality at 0.015625 µg/mL [1]: 0%
mortality at 0.03125 µg/mL [1]: 0%
mortality at 0.0625 µg/mL [1]: 0%
mortality at 0.125 µg/mL [1]: 0%
mortality at 0.25 µg/mL [1]: 0%
mortality at 0.5 µg/mL [1]: 60%

CCN(C(=O)c1cnn(C(C)C(C)C)c1C)c1ccnnc1 (stereo not shown) [B-133, dimpropyridaz]
Mortality (%) Observed (%) [3]: 0%
Mortality (%) Observed (%) [6]: 0%
Mortality (%) Observed (%) [7]: 0%
Mortality (%) Observed (%) [8]: 0%
Mortality (%) Observed (%) [9]: 0%

C[C@]1(COC(=O)C2CC2)[C@@H]2C[C@H](O)[C@@]3(C)Oc4cc(-c5cccnc5)oc(=O)c4[C@H](O)[C@@H]3[C@@]2(C)CC[C@@H]1OC(=O)C1CC1 [B-134, afidopyropen]
Mortality (%) Observed (%) [4]: 0%
Mortality (%) Observed (%) [5]: 0%
Mortality (%) Observed (%) [2]: 0%
Mortality (%) Observed (%) [3]: 0%
Mortality (%) Observed (%) [6]: 0%
Mortality (%) Observed (%) [7]: 0%
Mortality (%) Observed (%) [8]: 0%
Mortality (%) Observed (%) [9]: 0%
